Literature values as cited in article PMC8198792, “Prediction of Anticancer Peptides with High Efficacy and Low Toxicity by Hybrid Model Based on 3D Structure of Peptides” (International Journal of Molecular Sciences, 2021).
Where two headings read alike, the source gives them in different places.

Tested on: erythrocytes
Conditions: cited from earlier work
Excerpt: Supplement ijms-22-05630-s001.zip/Hemloytic Peptides(seguence).xlsx, sheet "HD1" | column: Activity || Supplement ijms-22-05630-s001.zip/Hemloytic Peptides(seguence).xlsx, sheet "HD2" | column: Activity || Supplement ijms-22-05630-s001.zip/Hemloytic Peptides(seguence).xlsx, sheet "HD3" | column: Activity

[1] = Hemolytic peptides dataset HD2, label 1 = hemolytic, 0 = non-hemolytic, ref Hemolytik/SATPdb
[2] = hemolytic peptides dataset HD3, 1 = hemolytic (positive set), 0 = non-hemolytic (negative set), labels taken from databases, ref Hemolytik/SATPdb
[3] = natural hemolytic peptide dataset HD1, label collected from databases, ref Hemolytik [49], SATPdb [34]

| Substance | Activity | Activity (dataset HD1, hemolytic 1 / non-hemolytic 0) | other results |
| --- | --- | --- | --- |
| GSKKPVPIIYCNRRAATGKCQRM [satpdb20782] | 0 | 0 |  |
| GFLGPLLKLGLKGVAKVIPHLIPSRQQ [satpdb16038] | 1 | 1 |  |
| FLSLIPHAINAVSAIAKHN [satpdb11891] | 1 |  |  |
| KKAAHVGKHVGKAALTHYL [satpdb21325] | 0 |  |  |
| DVNDLKNLCAKTHNLLPMCAMFGKK [satpdb20310] | 0 | 0 |  |
| KWKKLLKKPLLKKLLKKL [satpdb12329] | 0 |  |  |
| GIHDILKYGKPS [satpdb19051] | 0 | 0 |  |
| TGRAKRRMQYNRR [satpdb25092] | 0 | 0 |  |
| KPLLKKLLKKL [satpdb28330] | 0 |  |  |
| FGVLAKVAAHVVPAIAEHF [satpdb27842] | 0 |  |  |
| KWKLFKKIPKFLHL [satpdb16155] | 0 |  |  |
| KRLFKKLLFSLRKY [satpdb21867] | 0 | 0 |  |
| WLLKW [satpdb27330] |  |  | Activity [1]: 0; Activity [2]: 0 |
| CGESCVFIPCVTALLGCSCKSKVCYKNSIP [satpdb12547] |  |  | Activity [2]: 1; Activity (dataset HD1, hemolytic 1 / non-hemolytic 0) [3]: 1 |
| KRLFRRLLFSMKKY [satpdb20261] | 0 | 0 |  |
| GILDTLKQFAKGVGKDLVKGAAQGVLSTVSCKLAKTC [satpdb16042] | 0 | 0 |  |
| KWKSFLKTFKSLKKTVLHTLLKAISS [satpdb11586] | 1 |  |  |
| GWGSFFKKAAHVGKHVGKA [satpdb20663] | 0 |  |  |
| RRGWVLALYLRYGRR [satpdb15589] | 1 | 1 |  |
| GWGSIFKHGRHAAKHIGHAAVNHYL [satpdb11681] | 1 |  |  |
| KWKLFKKIPKFLHLAKKF [compound 2405] |  |  | Activity [1]: 0; Activity [2]: 0 |
| GIIKKI [satpdb22209] |  |  | Activity [1]: 0; Activity [2]: 0 |
| ENMFNIKSSVESDSFWG [satpdb15776] | 0 | 0 |  |
| RIIDLLWRVRRPQKPKFVTVWVR [satpdb14815] | 0 | 0 |  |
| KWKKLLKKPLKLKL [satpdb22005] | 0 |  |  |

| Substance | Activity | Activity (dataset HD1, hemolytic 1 / non-hemolytic 0) | other results |
| --- | --- | --- | --- |
| LRQSQFVGSR [satpdb22092] | 0 |  |  |
| QRSVSNAATRVSRTGRSRWRDVSRNFMRR [satpdb24123] | 0 | 0 |  |
| FLPLVLGALSGILPKILGK [satpdb12081] | 1 | 1 |  |
| SWSSFFKKAAHSGKHVGKSASTHYL [satpdb15741] | 0 |  |  |
| MAFKKLEKVGRNIRDGIIKAGPAVAVIGQATSIARPTGK [satpdb16695] | 0 | 0 |  |
| KSLRRVWRSWR [satpdb26460] | 0 |  |  |
| KWKLFKKIKFLHSAKKF [satpdb22653] | 0 |  |  |
| FDWDSVLKGVEGFVRGYF [satpdb25715] | 0 | 0 |  |
| KSLVRRWRSRW [satpdb18185] | 0 |  |  |
| LLKKLLKWLKK [satpdb11747] | 1 |  |  |
| KKKKKKALFAAWAAFLA [compound 1151] | 1 |  |  |
| KIAEKFSGTRRG [satpdb24068] | 0 | 0 |  |
| WKKIPKFLHLAKKF [satpdb14752] | 0 |  |  |
| KKKKKKALFALWLAFLA [compound 1155] | 1 |  |  |
| HYRIKPTFRRLKWKYKGKFW [satpdb11796] | 1 | 1 |  |
| SFFKKAAHVGKHVGKAALTHYL [satpdb17678] | 0 |  |  |
| ILPWKLPLLPLRR [satpdb15320] | 0 |  |  |
| IPHAVKAISDLI [satpdb15419] | 0 |  |  |
| KWKWKW [satpdb24601] | 0 |  |  |
| WYSEMKRNVQRLERAIEE [satpdb11990] | 1 |  |  |
| VGKTWIKVIRGIGKSKIKWQ [satpdb28870] | 0 | 0 |  |
| AAGMGFFGAR [satpdb25191] |  |  | Activity [1]: 0; Activity [2]: 0 |
| KKKKKKALFALWLAFAA [compound 1153] | 1 |  |  |
| KKLLPIVANLLKSLL [satpdb19176] | 0 | 0 |  |
| HVDKKVADKVLLLKQLRIMRLLTRL [satpdb19920] | 0 | 0 |  |

| Substance | Activity | Activity (dataset HD1, hemolytic 1 / non-hemolytic 0) | other results |
| --- | --- | --- | --- |
| KWKSFLKTFKSlKKTVLHTlLKAISS [satpdb12638] |  |  | Activity [1]: 1; Activity [2]: 1 |
| KWKLFKKIPKFLHSAKKF [satpdb25981] | 0 |  |  |
| RGGRLAYCRRRFCVAVGR [satpdb25189] | 0 |  |  |
| KKKKKKAAFALWLAFLA [compound 1154] | 1 |  |  |
| GTPCGESCVYIPCISGVIGCSCTDKVCYLN [satpdb10399] |  |  | Activity [2]: 1; Activity (dataset HD1, hemolytic 1 / non-hemolytic 0) [3]: 1 |
| GVPCGESCVFIPCITGVIGCSCSSNVCYLN [satpdb12922] |  |  | Activity [2]: 1; Activity (dataset HD1, hemolytic 1 / non-hemolytic 0) [3]: 1 |
| RRGWALRLVLAY [satpdb14852] | 1 | 1 |  |
| FLGPIIKIATGILPTAICKILKKC [satpdb24144] | 0 | 0 |  |
| LKKWLKKWLKK [satpdb15781] | 0 |  |  |
| DANVENGEDAEDLTDKFIGLMG [satpdb17330] | 0 | 0 |  |
| VLSAADKGNVKAAWGKVGGHAAE [satpdb26597] | 0 | 0 |  |
| ILGKLLSTAAKLLSKL [satpdb12927] | 1 |  |  |
| AKKVFKRLEKLFSKIWNDK [satpdb16260] | 0 | 0 |  |
| KKKKKKAAWAAWAAWAA [satpdb17717] | 0 |  |  |
| KWKSFLKTFKSAKKKVLHTALKAISS [satpdb11775] | 1 |  |  |
| KKKKKKAAFAAWAAFAA [satpdb19804] | 0 |  |  |
| QKAVLDCLKAAGSSLSKAAITAI [satpdb19403] | 0 | 0 |  |
| RRRAAFAAWAAFAARRR [satpdb23563] | 0 |  |  |
| KWKSFLKTLKSPVKTVFYTALKPISS [satpdb14675] |  |  | Activity [2]: 1; Activity (dataset HD1, hemolytic 1 / non-hemolytic 0) [3]: 1 |
| KLLKKPLKLKL [satpdb17171] | 0 |  |  |
| RFGRFLRKIRRFRPK [satpdb23150] | 0 | 0 |  |
| KAVAAKKSPKKAKKPAT [satpdb19355] | 0 | 0 |  |
| fPOVO [satpdb21927] |  |  | Activity [1]: 0; Activity [2]: 0 |
| CVISAGWNHKIRCKLTGNC [satpdb27441] | 0 | 0 |  |
| KKVVFKVKFK [satpdb13312] | 0 |  |  |

| Substance | Activity | Activity (dataset HD1, hemolytic 1 / non-hemolytic 0) | other results |
| --- | --- | --- | --- |
| GSKKPVPIIYANRRTGKAQRM [satpdb20538] | 0 | 0 |  |
| QADFQKVVAGVANALAHRYH [satpdb25830] | 0 | 0 |  |
| KWKLFKKIPHLAKKF [satpdb28955] | 0 |  |  |
| KLLLK [compound 3825] |  |  | Activity [1]: 1; Activity [2]: 1 |
| GWGSFFKKAAHVGKHVGKAALT [satpdb28107] | 0 |  |  |
| ILGKLLSTAAkLLSNL [satpdb12605] |  |  | Activity [1]: 1; Activity [2]: 1 |
| KKKKKKAAFALWAAFAA [compound 1147] | 1 |  |  |
| KKLKKLKKKWKKLKKKLK [satpdb24596] | 0 | 0 |  |
| LKLFKKILKFL [satpdb12214] | 1 |  |  |
| WNPFKELERAGQRVRDAIISAAP [satpdb17819] | 0 | 0 |  |
| GRDYRTSLTIVQKLKKMVD [satpdb22468] | 0 | 0 |  |
| IKIPPIVKDTLKKVAKGVLSTIAGALST [satpdb27001] | 0 | 0 |  |
| GLWSTIKNVGKEAAIAAGKAALGAL [satpdb11818] | 0 |  |  |
| KKlFKKILkYL [satpdb19353] |  |  | Activity [1]: 0; Activity [2]: 0 |
| RWRSFFKKAAHRGKHVGKRARTHYL [satpdb15888] | 0 |  |  |
| EWGRRCCGWGPGRRYCRRWC [satpdb13121] |  |  | Activity [2]: 0; Activity (dataset HD1, hemolytic 1 / non-hemolytic 0) [3]: 0 |
| RAGLQFPVGRLLRRLLR [satpdb15223] | 0 | 0 |  |
| LVRGCWTKSYPPKPCFVR [satpdb11737] | 1 | 1 |  |
| CYCRIPACIAGERRYGTCIYQGRLWAFCC [satpdb11499] | 1 | 1 |  |
| GWKSVFRKAKKVGKTVGGLALDHYL [satpdb12845] | 1 |  |  |
| RWKIFKKIEKVGRNVRDGIIKAGPAVAVVGQAATVVKG [satpdb26767] |  |  | Activity [2]: 0; Activity (dataset HD1, hemolytic 1 / non-hemolytic 0) [3]: 0 |
| KLLKLLLKLLLKLLK [compound 3689] | 1 |  |  |
| EMLKKKEVKMERKT [satpdb18957] | 0 | 0 |  |
| GIIKKIIKKI [satpdb26556] | 0 |  |  |
